Laboratory results from patent US20230111132A1, “STABILIZATION OF MHC COMPLEXES” (The Regents of the University of California, priority 2019, published 2023).

Experiments:
HLA-B*57:01 [1] = target: T1, HLA-B*57:01 (Homo sapiens, UniProt P01889, D201E/D98Y/E176V/E187L/E204Q/E69M/E70A/G107R/I90N/K202T/L105A/L119I/N104I/N87E/Q89R/Q94S/R106L/R155S/R180L/R86G/S101N/S121V/S35A/S48A/T118I/V36M/Y140S/Y91M); assay: MHC refolding ELISA (capture ELISA of refolded MHC-peptide complex); format: biochemical; set-up: Denatured heavy chain (final concentration 1 μM)
Experimental: FIG. 13. Primary assay: refolding ELISA.
Refolding reactions were set up in 96-well plates on ice by the successive addition of the following: • 1. Refolding Buffer (400 mM Arg-HCl, 100 mM Tris 8.0, 5 mM glutathione (GSH), 0.5 mM glutathione disulfide (GSSG), 1× cOmplete protease inhibitor cocktail); • 2. Beta-2-microglobulin (final concentration 2 μM). • 3. Peptide (final concentration 40 μM). • 4. Denatured heavy chain (final concentration 1 μM).
[…] Meanwhile, 96-well ELISA plate (Coming 3361) was treated with W6/32 (5 μg/mL) at 4° C. overnight. The plate was washed with PBS (2×200 μL), then blocked with 375 μL 3% BSA/PBS at 23° C. for 1 h. After washing the plate with PBST (3×200 μL), 90 μL 1% BSA/PBS was added to each well.
Detection of refolding was performed as follows: • 1. Add 10 μL of the refolding mixture to each well of the ELISA plate. • 2. Incubate the plate with shaking at 23° C. for 1 h. • 3. Wash plate with 1% BSA/PBS (3×200 μL). • 4. Add 50 μL BBM.1-HRP (1 μg/mL in 1% BSA/PBS) and incubate the plate with shaking at 23° C. for 1 h. • 5. Wash plate with PBST (3×200 μL). • 6. Wash plate with PBS (1×100 μL). • 7. Add 50 μL TMB Ultra and incubate the plate with shaking for 5 min. • 8. Stop the reaction by addition of 20 μL 2.0 M sulfuric acid. • Read absorbance at 450 nm within 10 min. […]

HLA-B*57:01 [2] = target: T1, HLA-B*57:01; conditions: PepV HSITYLLPV; known; cited from earlier work

| stabilization of the presentation of mutant K-Ras peptides by HLA-B*57:01 (HLA-B*57:01 [1]; peptide panel VVVGAVGVGG/A/V/I/K/W and HSITYLLPV (FIG. 8, FIG. 9)) | Compound | MHC-peptide complex formation after 72 h (HLA-B*57:01 [1]; 40 μM G12V 7-16, 1% DMSO, 10° C., 72 hours) | stabilization of PepV in HLA-B*57:01 (HLA-B*57:01 [2]) |
| --- | --- | --- | --- |
|  | CNS(=O)(=O)c1cc(Nc2nccc(N(C)c3ccc4nn(C)c(C)c4c3)n2)ccc1C [09-045B] | may be less susceptible to this instability |  |
| induced stabilization | Nc1nc(NC2CC2)c2ncn([C@H]3C=C[C@@H](CO)C3)c2n1 [abacavir] |  | stabilized |
